# Assays:
# [1] = test system: IR-induced senescent human umbilical vein endothelial cells (IR-SnC HUVEC); assay: Viability of IR-SnC HUVEC; assay type: cell-based; conditions: 72 hr incubation; vs ABT263
# Protocol: (§1) FIGS. 3A to 3B depicts viability of non-SnC human umbilical vein endothelial cells (HUVEC) and IR-induced SnC HUVEC treated with varying concentrations of ABT263 (FIG. 3A) or 753b (FIG. 3B). FIGS. 3C to 3D depict viability of non-SnC renal epithelial cells (REC), IR-induced SnC REC, and replicative senescent REC treated with varying concentrations of ABT263 (FIG. 3C) or 753b (FIG. 3D).
# (§2) The viability of Non-SnC HUVEC, Non-SnC REC, IR-SnC HUVEC, IR-SnC REC, and Rep-SnC REC was measured 72 hr after they were incubated with increasing concentrations of 753b or ABT263 compared to cells/platelets with vehicle.
# Bcl-xl [2] = target: T1, Bcl-xl (Homo sapiens, UniProt Q07817); assay: Immunoblot of Bcl-xl degradation in HEK293T cells; assay type: cell-based; design: endogenous in cells; conditions: different concentrations for 16 h, or 1 μM for various time points
# T1 sequence (Q07817 whole entry): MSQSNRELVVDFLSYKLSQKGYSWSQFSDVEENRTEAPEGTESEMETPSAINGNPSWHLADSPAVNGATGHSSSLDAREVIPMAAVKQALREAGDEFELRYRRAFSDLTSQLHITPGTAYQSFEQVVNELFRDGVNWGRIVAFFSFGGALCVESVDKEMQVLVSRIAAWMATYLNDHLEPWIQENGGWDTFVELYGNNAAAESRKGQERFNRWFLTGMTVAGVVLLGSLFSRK
# Protocol: (§3) FIG. 1A depicts immunoblots showing degradation of Bcl-xl and Bcl-2 in HEK293T cells treated with various concentrations of 753b for 16 hours. FIG. 1B depicts immunoblots showing degradation of Bcl-xl and Bcl-2 in HEK293T cells treated with 1 μM 753b for various durations. 3-actin was used as a loading control.
# (§4) The potency of 753b in degrading Bcl-xl/2 was evaluated in 293T cells by immunoblots after the cells were treated with different concentrations of 753b for 16 h (FIG. 1A) or after the cells were treated with 1 μM 753b for various time points as indicated (FIG. 1B). Representative immunoblots are shown, and β-actin was used as a loading control.
# [3] = test system: IR-induced senescent renal epithelial cells (IR-SnC REC); assay: Viability of IR-SnC REC; assay type: cell-based; conditions: 72 hr incubation; vs ABT263
# Protocol: as §1, §2
# [4] = Hepatic fat accumulation in the STAM model (oil red staining, hepatic triglyceride); assay type: in vivo, C57BL6 mice; conditions: STZ/HFD mice; 5 mg/kg twice a week IP; postnatal day 90
# Protocol: Scale bar: […]. FIG. 7B depicts percentage of oil red^+ area/field of the images depicted in FIG. 7A. Values represented means±SD. *p<0.05. […] Values represented means±SD. *p<0.05.
# Experimental design: C57BL6 mice were injected with Streptozotocin (STZ) at postnatal day 2 to induce diabetes and then fed with HFD from postnatal day 30 till the end of the experiments (FIG. 5). Half of the mice started receiving vehicle and the others receiving 753b (5 mg/kg) treatment on postnatal day 45 twice a week by IP injection till the end of the experiments. A group of the mice were euthanized at postnatal day 90 (or day 45 after the initiation of the treatment) for analysis of senescent cell accumulation and steatosis. Another group of the mice were euthanized at postnatal day 150 (or day 105 after the initiation of the treatment) for analysis of liver fibrosis and cancer.
# 753b administration represses hepatic fat accumulation in the STAM model. The liver tissues were collected from mice at postnatal day 90 (p90 or 45 days after treatment) for the analyses. […] Quantification of oil red stained images was performed from 5 livers per group (FIG. 7B). […] Quantification was performed from 5 livers per group and was expressed as means±SD.
# human platelets = assay: Viability of human platelets; assay type: cell-based; conditions: 48 hr incubation; vs ABT263
# Excerpt: (§5) FIG. 2A depicts immunoblots showing degradation of Bcl-xl and Bcl-2 in non-senescent WI-38 fibroblast cells (Non-SnCs) treated with varying concentrations of 753b. 3-actin was used as a loading control. FIG. 2B depicts viability of Non-SnCs treated with varying concentrations of 753b or ABT263. FIG. 2C depicts immunoblots showing degradation of Bcl-xl and Bcl-2 in ionizing radiation-induced senescent WI-38 fibroblast cells (IR-SnCs) treated with varying concentrations of 753b. 3-actin was used as a loading control. FIG. 2D depicts viability of IR-SnCs treated with varying concentrations of 753b or ABT263. FIG. 2E depicts immunoblots showing degradation of Bcl-xl and Bcl-2 in human platelets treated with varying concentrations of 753b. FIG. 2F depicts viability of human platelets treated with varying concentrations of 753b or ABT263.
# (§6) The potency of 753b in degrading Bcl-xl/2 was evaluated by immunoblots after the cells or platelets were treated with different concentrations of 753b for 16 h ([…]). 753b is more cytotoxic to IR-SnCs but less toxic to Non-SnCs and platelets. The viability of Non-SnCs, IR-SnCs and platelets was measured 72 hr (Non-SnCs and IR-SnCs) and 48 hr (platelets) after they were incubated with increasing concentrations of 753b or ABT263 compared to cells/platelets with vehicle.
# Bcl-2 [5] = target: T2, Bcl-2 (Homo sapiens, UniProt P10415); assay: Immunoblot of Bcl-2 degradation in WI-38 fibroblast cells (Non-SnCs and IR-SnCs); assay type: cell-based; design: degradation of Bcl-xl and Bcl-2 in non-senescent WI-38 fibroblast cells (Non-SnCs) treated with varying concentrations of 753b; endogenous in cells; host or cells: WI-38 fibroblasts (non-senescent and ionizing-radiation-induced senescent); conditions: different concentrations, 16 h, dose-dependent
# T2 sequence (P10415 whole entry): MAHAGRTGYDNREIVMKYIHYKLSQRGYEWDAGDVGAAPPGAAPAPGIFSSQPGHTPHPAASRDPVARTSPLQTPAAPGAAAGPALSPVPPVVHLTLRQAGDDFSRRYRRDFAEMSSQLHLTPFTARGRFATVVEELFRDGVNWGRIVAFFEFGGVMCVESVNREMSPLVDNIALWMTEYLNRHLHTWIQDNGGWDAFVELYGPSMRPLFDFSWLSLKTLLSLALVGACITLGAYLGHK
# Excerpt: as §5, §6
# Bcl-2 [6] = target: T2, Bcl-2; assay: Immunoblot of Bcl-2 degradation in HEK293T cells; assay type: cell-based; design: endogenous in cells; conditions: different concentrations for 16 h, or 1 μM for various time points
# Protocol: as §3, §4
# Bcl-xl [7] = target: T1, Bcl-xl; assay: Immunoblot of Bcl-xl degradation in WI-38 fibroblast cells (Non-SnCs and IR-SnCs); assay type: cell-based; design: degradation of Bcl-xl and Bcl-2 in non-senescent WI-38 fibroblast cells (Non-SnCs) treated with varying concentrations of 753b; endogenous in cells; host or cells: WI-38 fibroblasts (non-senescent and ionizing-radiation-induced senescent); conditions: different concentrations, 16 h, dose-dependent
# Excerpt: as §5, §6
# [8] = test system: normal non-senescent REC (Non-SnC REC); assay: Viability of Non-SnC REC; assay type: cell-based; conditions: 72 hr incubation; vs ABT263
# Protocol: as §1, §2
# [9] = IR-induced senescent WI-38 fibroblast cells
# [10] = non-senescent WI-38 fibroblast cells
structure (smiles),measurement,setting,value
Cc1ncsc1-c1ccc([C@H](C)NC(=O)[C@@H]2C[C@@H](O)CN2C(=O)[C@@H](NC(=O)CCCCCCC(=O)N2CCN(C[C@]3(C)CCC(c4ccc(Cl)cc4)=C(CN4CCN(c5ccc(C(=O)NS(=O)(=O)c6ccc(N[C@H](CCN7CCOCC7)CSc7ccccc7)c(S(=O)(=O)C(F)(F)F)c6)cc5)CC4)C3)CC2)C(C)(C)C)cc1 [Compound 753b],Senolytic potency (viability) against IR-SnC HUVEC compared with ABT263,[1],more potent senolytic agent
same,Bcl-xl degradation,Bcl-xl [2],degrades Bcl-xl and Bcl-2 in a dose- and time-dependent manner
same,Senolytic potency (viability) against IR-SnC REC compared with ABT263,[3],more potent senolytic agent
same,Hepatic fat accumulation (oil red staining),[4],inhibited hepatic fat accumulation
same,Hepatic triglyceride level,[4],decreased levels of hepatic triglyceride
same,Toxicity (viability) to human platelets compared with ABT263,human platelets,less toxic
same,Bcl-2 degradation in IR-SnCs,Bcl-2 [5]; [9],degrades Bcl-xl and Bcl-2 in Non-SnCs and IR-SnCs
same,Bcl-2 degradation in Non-SnCs,Bcl-2 [5]; [10],degrades Bcl-xl and Bcl-2 in Non-SnCs and IR-SnCs
same,Bcl-2 degradation,Bcl-2 [6],degrades Bcl-xl and Bcl-2 in a dose- and time-dependent manner
same,Bcl-xl degradation in IR-SnCs,Bcl-xl [7]; [9],degrades Bcl-xl and Bcl-2 in Non-SnCs and IR-SnCs
same,Bcl-xl degradation in Non-SnCs,Bcl-xl [7]; [10],degrades Bcl-xl and Bcl-2 in Non-SnCs and IR-SnCs
same,Toxicity (viability) to Non-SnC REC compared with ABT263,[8],less toxic
